Experiments:
Test in all cases: relative viability (nuclei count vs DMSO), 5 days (fraction); higher = more cells survive
[1] = compound: CC1=CC=C(C=C1)C(=O)CN2C3=C(CCCC3)SC2=N [Pifithrin_alpha] + COc1cc2c(Oc3ccc(NC(=O)C4(C(=O)Nc5ccc(F)cc5)CC4)cc3F)ccnc2cc1OCCCN1CCOCC1 [Foretinib] (partner 0.25 µM)
In short: (§1)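 The day after seeding in 1536-well plates, lung cancer cell lines were treated by pin tool with a single drug, or with a fixed anchor-drug dose together with five library-drug doses (not always all listed) in √10 steps. After 5 days, a combined fix-and-stain solution (final 0.05% Triton X-100, 1% formaldehyde, 1 ug/ml Hoechst) was added. Nuclei counted on 4× images gave relative viability as treated counts over vehicle counts, reported as the median of duplicate plates.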

[2] = compound: CNC(=O)c1ccccc1Sc1ccc2c(/C=C/c3ccccn3)n[nH]c2c1 [Axitinib] + Cc1nc(NC(=O)N2CCC[C@H]2C(N)=O)sc1-c1ccnc(C(C)(C)C(F)(F)F)c1 [Alpelisib] (partner 2 µM)
In short: as §1

[3] = compound: CNC(=O)c1ccccc1Sc1ccc2c(/C=C/c3ccccn3)n[nH]c2c1 [Axitinib] + CC1(C)CCC(c2ccc(Cl)cc2)=C(CN2CCN(c3ccc(C(=O)NS(=O)(=O)c4ccc(N[C@H](CCN5CCOCC5)CSc5ccccc5)c(S(=O)(=O)C(F)(F)F)c4)cc3)CC2)C1 [Navitoclax] (partner 0.5 µM)
In short: as §1

[4] = compound: Nc1nc(Nc2ccc3c(c2)CC[C@@H](N2CCCC2)CC3)nn1-c1cc2c(nn1)-c1ccccc1CCC2 [Bemcentinib] + CC(=O)Nc1cccc(-n2c(=O)n(C3CC3)c(=O)c3c(Nc4ccc(I)cc4F)n(C)c(=O)c(C)c32)c1 [Trametinib] (partner 0.02 µM)
In short: as §1

Cell Line | relative viability ([1]; first compound 1 µM) | relative viability ([1]; first compound 3.162 µM) | relative viability ([1]; first compound 10 µM) | relative viability ([1]; first compound 100 µM) | relative viability ([2]; first compound 0.005 µM) | relative viability ([2]; first compound 0.01581 µM) | relative viability ([2]; first compound 0.05 µM) | relative viability ([2]; first compound 0.1581 µM) | relative viability ([2]; first compound 0.5 µM) | relative viability ([3]; first compound 0.005 µM) | relative viability ([3]; first compound 0.01581 µM) | relative viability ([3]; first compound 0.05 µM) | relative viability ([3]; first compound 0.1581 µM) | relative viability ([3]; first compound 0.5 µM) | relative viability ([4]; first compound 0.04 µM) | relative viability ([4]; first compound 0.1265 µM) | relative viability ([4]; first compound 0.4 µM) | relative viability ([4]; first compound 1.265 µM) | relative viability ([4]; first compound 4 µM) | relative viability ([1]; first compound 31.62 µM)
LK-2 | 1.18 | 1.64 | 1.48 | 1.62 | 1.02 | 0.853 | 0.838 | 0.902 | 0.828 | 1.1 | 0.84 | 0.657 | 0.659 | 0.644 | 0.798 | 0.908 | 0.629 | 0.795 | 0.885 | –
NCI-H358 | 0.773 | 0.777 | 0.645 | 0.541 | 1.03 | 0.898 | 0.806 | 0.738 | 1.05 | – | – | – | – | – | 0.12 | 0.125 | 0.118 | 0.134 | 0.145 | 0.467
NCI-H522 | – | – | – | – | – | – | – | – | – | – | – | – | – | – | 0.75 | 0.742 | 0.754 | 0.771 | 0.788 | –
NCI-H661 | 0.996 | 1 | 0.981 | 0.904 | 0.613 | 0.509 | 1.02 | 0.862 | 0.511 | – | – | – | – | – | 0.62 | 0.678 | 0.604 | 0.553 | 0.595 | 0.94
NCI-H1299 | 1.04 | 1.14 | 1.07 | 1.07 | 0.987 | 1.01 | 1.06 | 1.06 | 1.1 | 1.14 | 1.04 | 1.07 | 1.04 | 1.07 | – | – | – | – | – | 0.889
NCI-H1563 | 0.879 | 0.912 | 0.875 | 0.81 | 1.04 | 0.916 | 0.951 | 0.892 | 0.986 | – | – | – | – | – | – | – | – | – | – | 0.881
